“Also recorded” adds a separate entry of the source. Where a SMILES comes first, the peptide text is derived from it.

Data set [1] is described as follows: Fluorescence imaging of Cyanine5.5-labeled peptides (in vivo, ex vivo, urine). More on the design: species or system Female SHO mice. The following applies: i.v. An excerpt: The animals were then euthanized.
For data set [2], the system named is kidney injury molecule-1 (KIM-1) and neutrophil gelatinase-associated lipocalin (NGAL). In words: Nephrotoxicity studies, urinary renal injury biomarkers by ELISA. The format is in vivo, BALB/c mice. The following applies: single i.v. dose; 3 days. As to the method: The level of the acute renal injury biomarkers, neutrophil gelatinase-associated lipocalin (NGAL) and kidney injury molecule-1 (KIM-1) in the urine samples, were measured using ELISA assays according to the manufacturer's instructions (R&D Systems, Minneapolis, MN). […] All the animals (n=3/group) were euthanized at the end of the treatment and the kidneys were collected and fixed in 10% neutral buffered formalin. The tissues were then processed, embedded in paraffin, sectioned, and stained with H&E. Immunohistochemistry (IHC) for kidney injury (NGAL and KIM-I) was also performed.
(In general: In an ELISA, binding on a coated surface is turned into a signal by an enzyme label.)

The test system of data set [3] is orthotopic human UMUC-3 tumors. In words: Therapeutic efficacy for treating BC, orthotopic UMUC-3/GFP-Luc xenograft. Conditions: 5 mg/kg weekly. From the text: These animals were immediately euthanized I week after the completion of the treatment schedule.
Slides were then counterstained with Hematoxylin.

Data set [4] is described as follows: μPET/CT imaging and biodistribution of ^89Zr-radiolabeled peptides. The class given is in vivo, BALB/c mice. The following applies: i.v. As to the method:
Radiochemistry—^89Zirconium (^89Zr) was supplied by 3DImaging LLC (Little Rock, AR). The ^89Zr-oxalate (500 μCi) was first neutralized with an equivalent volume of sodium carbonate solution (2 M), and then added to the DFO-peptides (0.2 mg, 250 μL). After incubation for 1.5 h at room temperature, the radiolabeled peptides (^89Zr-peptides) were purified by size exclusion chromatography using Sephadex G-25 gel to remove the free zirconium.
μPET/CT imaging and biodistribution study—BALB/c mice were intravenously injected with different ^89Zr-peptide analogues (20 μCi, 100 μL). μLPET/CT imaging was performed in animals with and without urine collection prior to the first imaging (n=4/analogue/condition). Whole-body images were acquired 1, 4, and 24 h after injection, using Inveon μPET/CT scanner (Siemens Medical Solutions, Malvern, PA). μPET/CT maximum energy projections were processed using Amide v1.0.4 and Inveon Research Workplace software. The radioactivities at different region of interest (ROI) were determined. […] The radioactivities of the harvested organs were measured using the Wallac Wizard 2 gamma counter. The results were corrected from radioactive decay, and were expressed as a percentage of the injected dose (% ID) or percentage of injected dose per gram of tissue (% ID/g).

In data set [5] the test system is major organs (liver, spleen, heart, lungs, and kidneys). In words: Necropsy, histopathology of major organs. The class given is in vivo, female BALB/c mice. Conditions: i.v. weekly for 3 weeks; DM1/DM1-Bdd 0.75 mg/kg, CIS 10 mg/kg. From the text: (§1) At the end of a 3-week treatment, mice were euthanized. The organs/tissues were harvested, fixed in 10% neutral buffered formalin for 2 days. Bones were decalcified in a formic acid solution (Surgipath Decalcifier I; Leica Biosystems, Weltzar, Germany). The samples were then embedded in paraffin, sectioned (5 μm), and stained with H&E for examination by an ACVP board certified anatomic pathologist.

A short description of data set [6]: Hematology, complete blood count. The following applies: i.v. weekly for 3 weeks; DM1/DM1-Bdd 0.75 mg/kg, CIS 10 mg/kg. The format is in vivo, female BALB/c mice. On the procedure: Necropsy—Seven- to 9-week-old female BALB/c mice (n=4/group) were treated weekly with PBS, DM1, DM1-peptide (0.75 mg/kg of drug content), or cisplatin (10 mg/kg) via tail-vein injection (150 μL). At the end of a 3-week treatment, mice were euthanized. The organs/tissues were harvested, fixed in 10% neutral buffered formalin for 2 days. Bones were decalcified in a formic acid solution (Surgipath Decalcifier I; Leica Biosystems, Weltzar, Germany). The samples were then embedded in paraffin, sectioned (5 μm), and stained with H&E for examination by an ACVP board certified anatomic pathologist.
(§2) Hematology and biochemistry—Blood samples were collected via cardiac puncture. A complete blood count, including red blood cell, white blood cell, reticulocyte and platelet counts, with an automated differential leukocyte count, was performed using an IDEXX Procyte DX hematology analyzer (iDEXX, Westbrook. ME). Blood smears were prepared, stained with modified Wright's stain, examined in a blinded fashion by a board-certified veterinary clinical pathologist (T.S.), and imaged using a Nikon Eclipse TE2000-U fluorescent microscope equipped with a photometrics CoolSNAP HQ^2 camera (Nikon Corporation, Tokyo, Japan). The blood was also centrifuged (1,500×G) for 15 min to obtain the serum for biochemical analysis using a Beckman Coulter AU680 analyzer (Beckman Coulter, Brea, CA).

The nature of the next data set: Serum biochemistry. The following applies: i.v. weekly for 3 weeks; DM1 0.75 mg/kg, CIS 10 mg/kg. The class given is in vivo, female BALB/c mice.
Text: as §1, §2

“Cyanine5.5 [free Cy, reference compound]”: the main uptake organ result in data set [1] is listed as “mainly taken up by the liver”.

As to `Nc1ccn([C@@H]2O[C@H](CO)[C@@H](O)C2(F)F)c(=O)n1` [GEM, gemcitabine], the “induction of KIM-1 and/or NGAL, 3 days” value in data set [2] is recorded as “continued induction of KIM-1 and/or NGAL”.

Consider `CN1/C(=C/C=C/C=C/C2=[N+](CCCCCC(=O)NCCC(=O)N[C@@H](CCCCN)C(=O)N[C@@H](CC(=O)O)C(=O)NCCC(=O)N[C@@H](CCCCN)C(=O)N[C@@H](CC(=O)O)C(=O)NCCC(=O)N[C@@H](CCCCN)C(=O)N[C@@H](CC(=O)O)C(=O)NCCC(=O)N[C@@H](CCCCN)C(=O)N[C@@H](CC(=O)O)C(N)=O)c3ccc4ccccc4c3C2(C)C)C(C)(C)c2c1ccc1ccccc21` [Cy-BKD] (HELM PEPTIDE1{[CN1/C(=C/C=C/C=C/C2=[N+](CCCCCC(=O)[*:2])c3ccc4ccccc4c3C2(C)C)C(C)(C)c2c1ccc1ccccc21].[bAla].K.D.[bAla].K.D.[bAla].K.D.[bAla].K.D.[am]}$$$$V2.0), for which the main uptake organ entry in data set [1] was “mainly taken up by the liver”.

In the case of `CN1/C(=C/C=C/C=C/C2=[N+](CCCCCC(=O)NCCC(=O)N[C@@H](CCCCN)C(=O)N[C@@H](CCCCN)C(=O)NCCC(=O)N[C@@H](CCCCN)C(=O)N[C@@H](CCCCN)C(=O)NCCC(=O)N[C@@H](CCCCN)C(=O)N[C@@H](CCCCN)C(=O)NCCC(=O)N[C@@H](CCCCN)C(=O)N[C@@H](CCCCN)C(N)=O)c3ccc4ccccc4c3C2(C)C)C(C)(C)c2c1ccc1ccccc21` [Cy-BKK] (HELM PEPTIDE1{[CN1/C(=C/C=C/C=C/C2=[N+](CCCCCC(=O)[*:2])c3ccc4ccccc4c3C2(C)C)C(C)(C)c2c1ccc1ccccc21].[bAla].K.K.[bAla].K.K.[bAla].K.K.[bAla].K.K.[am]}$$$$V2.0), the main uptake organ entry in data set [1] is given as “mainly taken up by the liver”.

Take `COc1cccc2c1C(=O)c1c(O)c3c(c(O)c1C2=O)C[C@@](O)(C(=O)CO)C[C@@H]3O[C@H]1C[C@H](N)[C@H](O)[C@H](C)O1` [DOX, Doxorubicin, reference compound]: in data set [3], the body weight result is listed as “all the animals continuously losing weight” and the “life expectancy compared to the PBS control / mortality” value is recorded as “shorter life expectancy compared to the PBS control; also recorded: died prior to receiving the final dose; also recorded: caused mortality”.

“NH2-(PEG3)DD-(PEG3)DD-(PEG3)DD-(PEG3)DD-CONH2 (SEQ ID NO:5) [PEG3DD]”: the “accumulation in kidneys over time” value in data set [4] was “initial increase”.

In the case of `N.N.[Cl][Pt][Cl]` [CIS, cis-dichlorodiammine platinum(II)], the “histopathology of liver, spleen, heart, lungs, or kidneys” value in data set [5] is “degeneration and necrosis of the proximal renal tubules, lung inflammation, and depletion of both erythrocytes and extramedullary hematopoiesis (EMH) in spleen”. Moreover, in data set [6], the “red blood cell, leukocyte, or platelet counts or morphologic features” value is “thrombocytopenia and lymphopenia”. Further, the “muscle injury (CK activity)” value in “Serum biochemistry” is on record as “induced muscle injury (CK activity)”.

As to `CO[C@@]12[C@H](COC(N)=O)C3=C(C(=O)C(C)=C(N)C3=O)N1C[C@@H]1N[C@@H]12` [MIT, Mitomycin], the “induction of KIM-1 and/or NGAL, 3 days” value in data set [2] was “continued induction of KIM-1 and/or NGAL”.

`CC(=O)N(O)CCCCCNC(=O)CCC(=O)N(O)CCCCCNC(=O)CCC(=O)N(O)CCCCCNC(=S)Nc1ccc(NC(=S)NCCC(=O)N[C@@H](CCCCN)C(=O)N[C@@H](CCCCN)C(=O)NCCC(=O)N[C@@H](CCCCN)C(=O)N[C@@H](CCCCN)C(=O)NCCC(=O)N[C@@H](CCCCN)C(=O)N[C@@H](CCCCN)C(=O)NCCC(=O)N[C@@H](CCCCN)C(=O)N[C@@H](CCCCN)C(N)=O)cc1` [^89Zr-BKK, metal not drawn] (HELM PEPTIDE1{[CC(=O)N(O)CCCCCNC(=O)CCC(=O)N(O)CCCCCNC(=O)CCC(=O)N(O)CCCCCNC(=S)Nc1ccc(NC(=S)[*:2])cc1].[bAla].K.K.[bAla].K.K.[bAla].K.K.[bAla].K.K.[am]}$$$$V2.0): in data set [4], the organ distribution result is “delivered to the liver in addition to the URS”.

These data come from patent US20260373274A1, “PEPTIDE-LINKED DRUG DELIVERY SYSTEM” (priority 2022, published 2026).
